According to PubChem BioAssay AID248 (DTP/NCI, 2004):
Values joined by “and” are separate entries in the source; they are usually repeats but may differ in a detail not shown here. Identical values can stand only once. Inconclusive results and toxic doses are left out. Cut-off read from the data, not from the text of the source: active = T/C of 150% or more; inactive = T/C below 125%.

Test system: L1210 leukemia ip in BDF1 mice, survival T/C
Assay: NCI In Vivo Anticancer Drug Screen. Data for tumor model L1210 Leukemia (intraperitoneal) in B6D2F1 (BDF1) mice
Settings: endpoint: mean survival time, higher = longer survival
How it was run: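 Transplantable tumor model; survival measured in treated vs vehicle control mice. Value = treated/control.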

Measured: T/C

C/C(=N\N=C(N)N)c1ccc(N2CCN(c3ccc(/C(C)=N/N=C(N)N)cc3)CC2)cc1
inactive: dose: 100.0 mg/kg/injection, schedule: Q01DX001 (ip), vehicle: carboxymethylcellulose (CMC) 94 % of control | dose: 200.0 mg/kg/injection, schedule: Q01DX001 (ip), vehicle: carboxymethylcellulose (CMC) 97 % of control | dose: 400.0 mg/kg/injection, schedule: Q01DX001 (ip), vehicle: carboxymethylcellulose (CMC) 100 % of control

Nc1ccc(OC(F)(F)C(F)Cl)cc1 (configuration not stated)
inactive: dose: 100.0 mg/kg/injection, schedule: Q01DX009 (ip), vehicle: Klucel (hydroxypropylcellulose) (HPC) 97 % of control | dose: 100.0 mg/kg/injection, schedule: Q04DX003 (ip), vehicle: Klucel (hydroxypropylcellulose) (HPC) 97 % of control | dose: 200.0 mg/kg/injection, schedule: Q01DX009 (ip), vehicle: Klucel (hydroxypropylcellulose) (HPC) 99 % of control | dose: 200.0 mg/kg/injection, schedule: Q04DX003 (ip), vehicle: Klucel (hydroxypropylcellulose) (HPC) 100 % of control | dose: 400.0 mg/kg/injection, schedule: Q01DX009 (ip), vehicle: Klucel (hydroxypropylcellulose) (HPC) 116 % of control | dose: 400.0 mg/kg/injection, schedule: Q04DX003 (ip), vehicle: Klucel (hydroxypropylcellulose) (HPC) 101 % of control

CCN(CCNS(C)(=O)=O)c1ccc(N)c(C)c1
inactive: dose: 3.12 mg/kg/injection, schedule: Q01DX009 (ip), vehicle: saline 101 % of control | dose: 6.25 mg/kg/injection, schedule: Q01DX009 (ip), vehicle: saline 91 % of control | dose: 12.5 mg/kg/injection, schedule: Q01DX009 (ip), vehicle: saline 99 % of control and 92 % of control
